# Measurements taken from patent US8575360B2, “Derivatives of 6,7-dihydro-5H-imidazo[1,2-a]imidazole-3-carboxylic acid amides” (Boehringer Ingelheim International GmbH, priority 2009, dated 2013).
# Biological target: T1, LFA-1 (CD18/CD11a) binding to ICAM-1 (Homo sapiens, UniProt P05107+P20701)
# T1 construct: followed by purified LFA-1 (in buffer of 50 mM triethylamine, 150 mM NaCl, 1% beta octylglucoside)
# Assay: LFA-1/Biotin-sICAM-1 AlphaScreen assay: inhibition of LFA-1 binding to ICAM-1
# Settings: 37° C. 90 minutes, highest compound concentration 1 μM
# Text: Assay to Determine Inhibition of LFA-1 Binding to ICAM-1
# This assay protocol is designed to study the direct antagonism, by a test compound, of the interaction of ICAM-1 with the Leukointegrin CD18/CD11a (LFA-1).
# The LFA-1/Biotin-sICAM-1 molecular assay measures the ability of test compounds to inhibit binding of LFA-1 to Biotinylated-sICAM using AlphaScreen technology (Ref: Wilson, J, Rossi, C P, Carboni, S, Fremaux, C, Perrin, D, Soto, C, Kosco-Vilbois, M, and Scheer, A: A Homogeneous 384-Well High-Throughput Binding Assay for a TNF Receptor Using Alphascreen Technology. J Biomol Screen 2003; 8:522-532) that uses TS2/4(anti-LFA-1)-custom conjugated AlphaLisa acceptor beads and streptavidin-coated donor beads from PerkinElmer. The assay was performed in white OptiPlates-384 in a volume of 60 μL using assay buffer (Dulbecco's PBS containing calcium and magnesium, 2 mM MgCl2, 0.1 mM PMSF, 0.1% BSA, pH 7.1). To each well, Biotin-sICAM was added followed by purified LFA-1 (in buffer of 50 mM triethylamine, 150 mM NaCl, 1% beta octylglucoside, 2 mM MgCl2 neutralized to pH with 1M Tris-HCl, pH 7.5). For compound testing, compound was added in 5 uL to the above in 25 uL. LFA-1 and Biotin-sICAM-1 were used at concentrations that would yield a signal to background ratio of 8-10. The highest concentration of compound was 1 μM in 1% DMSO. Positive controls were wells without compound containing LFA-1, while blanks were wells without both compound and LFA-1. Plates were mixed and incubated at 37° C. for 90 minutes. This was followed by addition of 15 μL/well TS2/4-conjugated acceptor beads diluted in PBS containing 0.1% BSA for a final concentration of 10 μg/mL. The plates were mixed and incubated in the dark for 30 minutes at room temperature followed by addition of 15 μL/well streptavidin-coated donor beads diluted in PBS containing 0.1% BSA at a final concentration of 15 μg/mL. The plates were mixed and incubated in the dark for 60 minutes at room temperature and then read on an EnVision Multilabel Reader using AlphaScreen 384-well OptiPlate protocol.
# T1 sequence (P20701 26-1170): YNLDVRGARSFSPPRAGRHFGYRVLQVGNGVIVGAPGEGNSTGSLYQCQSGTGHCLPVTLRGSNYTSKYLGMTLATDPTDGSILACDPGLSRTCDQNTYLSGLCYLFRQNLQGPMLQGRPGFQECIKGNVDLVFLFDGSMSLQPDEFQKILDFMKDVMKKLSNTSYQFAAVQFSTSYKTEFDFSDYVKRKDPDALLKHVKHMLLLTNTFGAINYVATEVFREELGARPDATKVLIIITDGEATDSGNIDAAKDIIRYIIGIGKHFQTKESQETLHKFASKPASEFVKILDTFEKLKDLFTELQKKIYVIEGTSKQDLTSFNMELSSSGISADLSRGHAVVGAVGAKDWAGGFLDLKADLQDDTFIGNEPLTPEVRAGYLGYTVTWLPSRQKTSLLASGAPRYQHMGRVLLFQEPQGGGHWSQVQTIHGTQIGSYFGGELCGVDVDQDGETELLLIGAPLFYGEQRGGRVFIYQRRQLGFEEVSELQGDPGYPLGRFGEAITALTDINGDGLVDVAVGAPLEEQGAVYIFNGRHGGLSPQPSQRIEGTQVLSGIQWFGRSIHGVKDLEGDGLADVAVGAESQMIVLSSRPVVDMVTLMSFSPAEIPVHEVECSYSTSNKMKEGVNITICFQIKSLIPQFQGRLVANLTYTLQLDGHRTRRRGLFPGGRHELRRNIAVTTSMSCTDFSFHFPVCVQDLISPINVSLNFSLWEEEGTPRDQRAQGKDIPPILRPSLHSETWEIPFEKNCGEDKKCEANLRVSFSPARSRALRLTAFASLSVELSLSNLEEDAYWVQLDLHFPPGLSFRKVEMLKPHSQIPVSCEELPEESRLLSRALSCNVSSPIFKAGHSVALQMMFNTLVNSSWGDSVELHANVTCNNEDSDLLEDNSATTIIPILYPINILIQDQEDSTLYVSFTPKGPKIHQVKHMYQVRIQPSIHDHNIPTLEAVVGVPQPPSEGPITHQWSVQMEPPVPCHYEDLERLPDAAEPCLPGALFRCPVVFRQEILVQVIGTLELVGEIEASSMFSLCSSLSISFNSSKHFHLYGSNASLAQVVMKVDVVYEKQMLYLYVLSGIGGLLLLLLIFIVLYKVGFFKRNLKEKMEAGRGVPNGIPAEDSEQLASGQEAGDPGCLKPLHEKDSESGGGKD
# T1 sequence (P05107 23-769 partner): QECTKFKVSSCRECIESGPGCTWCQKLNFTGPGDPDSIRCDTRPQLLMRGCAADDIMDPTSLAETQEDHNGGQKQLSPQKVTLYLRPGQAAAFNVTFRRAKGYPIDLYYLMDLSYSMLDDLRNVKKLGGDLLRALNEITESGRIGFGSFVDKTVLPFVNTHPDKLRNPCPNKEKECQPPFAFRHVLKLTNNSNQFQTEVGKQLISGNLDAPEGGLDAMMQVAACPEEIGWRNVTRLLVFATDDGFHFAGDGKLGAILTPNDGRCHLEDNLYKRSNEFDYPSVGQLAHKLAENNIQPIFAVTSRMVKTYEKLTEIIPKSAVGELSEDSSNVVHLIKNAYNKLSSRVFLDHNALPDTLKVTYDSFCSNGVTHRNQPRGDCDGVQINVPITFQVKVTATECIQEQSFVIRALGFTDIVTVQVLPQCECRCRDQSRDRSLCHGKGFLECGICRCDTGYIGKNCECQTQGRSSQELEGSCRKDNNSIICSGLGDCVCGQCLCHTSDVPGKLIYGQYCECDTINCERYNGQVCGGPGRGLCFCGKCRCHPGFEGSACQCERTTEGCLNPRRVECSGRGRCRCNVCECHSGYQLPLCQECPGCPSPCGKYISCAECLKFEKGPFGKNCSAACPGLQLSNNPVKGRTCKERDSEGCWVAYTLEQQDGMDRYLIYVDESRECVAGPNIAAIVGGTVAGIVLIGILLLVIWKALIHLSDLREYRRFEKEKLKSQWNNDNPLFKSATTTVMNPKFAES
row,SMILES,IC50 [nM]
1,C[C@@]1(Cc2ccc(OC(F)(F)F)cc2)C(=O)N(c2cc(Cl)c(F)c(Cl)c2)c2ncc(C(=O)NC3(C(=O)NC4(c5ccc(-c6cn[nH]c6)nn5)CC4)CC3)n21 [Compound 42],1.3
2,Cn1cc(-c2ccc(C3(NC(=O)C4(NC(=O)c5cnc6n5[C@](C)(Cc5ccc(C#N)cc5)C(=O)N6c5cc(Cl)cc(C(F)(F)F)c5)CC4)CC3)nc2)cn1 [Compound 51],1.2
3,C[C@@]1(Cc2ccc(C#N)cc2)C(=O)N(c2cc(Cl)cc(Cl)c2)c2ncc(C(=O)NC3(C(=O)NC4(c5ccc(-c6cccc(C(=O)O)c6)cn5)CC4)CC3)n21 [Compound 52],0.72
4,Cc1cc(-c2ccc(C3(NC(=O)C4(NC(=O)c5cnc6n5[C@](C)(Cc5ccc(C#N)cc5)C(=O)N6c5cc(Cl)cc(Cl)c5)CC4)CC3)nc2)ccn1 [Compound 54],0.53
5,CN(C)C(=O)c1cccc(-c2ccc(C3(NC(=O)C4(NC(=O)c5cnc6n5[C@](C)(Cc5ccc(C#N)cc5)C(=O)N6c5cc(Cl)cc(Cl)c5)CC4)CC3)nc2)c1 [Compound 56],0.67
6,C[C@@]1(Cc2ccc(C#N)cc2)C(=O)N(c2cc(Cl)cc(Cl)c2)c2ncc(C(=O)NC3(C(=O)NC4(c5ccc(-c6ccc(F)nc6)cn5)CC4)CC3)n21 [Compound 58],0.71
7,Cc1n[nH]c(C)c1-c1ccc(C2(NC(=O)C3(NC(=O)c4cnc5n4[C@](C)(Cc4ccc(C#N)cc4)C(=O)N5c4cc(Cl)cc(Cl)c4)CC3)CC2)nc1 [Compound 60],0.96
8,C[C@@]1(Cc2ccc(C#N)cc2)C(=O)N(c2cc(Cl)cc(Cl)c2)c2ncc(C(=O)NC3(C(=O)NC4(c5ccc(-c6ccc(Cl)nc6)cn5)CC4)CC3)n21 [Compound 61],1
9,Cc1ccc(-c2ccc(C3(NC(=O)C4(NC(=O)c5cnc6n5[C@](C)(Cc5ccc(C#N)cc5)C(=O)N6c5cc(Cl)cc(Cl)c5)CC4)CC3)nc2)cn1 [Compound 62],1.1
10,C[C@@H](NC(=O)C1(NC(=O)c2cnc3n2[C@](C)(Cc2ccc(C#N)cc2)C(=O)N3c2cc(Cl)c(F)c(Cl)c2)CC1)c1ccc(-c2ccc(CO)nc2)cn1 [Compound 65],0.53
11,C[C@@]1(Cc2ccc(C#N)cc2)C(=O)N(c2cc(Cl)cc(Cl)c2)c2ncc(C(=O)NC3(C(=O)NC4(c5ccc(-c6cccc(C(N)=O)c6)cn5)CC4)CC3)n21 [Compound 66],1.3
12,C[C@@]1(Cc2ccc(C#N)cc2)C(=O)N(c2cc(Cl)c(F)c(Cl)c2)c2ncc(C(=O)NC3(C(=O)NC4(c5ccc(-c6ccncc6)cn5)CC4)CC3)n21 [Compound 68],0.6
13,C[C@@]1(Cc2ccc(C#N)cc2)C(=O)N(c2cc(Cl)c(F)c(Cl)c2)c2ncc(C(=O)NC3(C(=O)NC4(c5ccc(-c6cccc(C(N)=O)c6)cn5)CC4)CC3)n21 [Compound 70],0.8
14,Cn1cc(-c2ccc(C3(NC(=O)C4(NC(=O)c5cnc6n5[C@](C)(Cc5ccc(Br)cc5)C(=O)N6c5cc(Cl)cc(Cl)c5)CC4)CC3)nc2)cn1 [Compound 75],1.2
15,C[C@H](NC(=O)c1cnc2n1[C@](C)(Cc1ccc(C#N)cc1)C(=O)N2c1cc(Cl)c(F)c(Cl)c1)C(=O)NC1(c2ncc(-c3ccc(CO)nc3)cn2)CC1 [Compound 78],1.2
16,C[C@H](NC(=O)c1cnc2n1[C@](C)(Cc1ccc(C#N)cc1)C(=O)N2c1cc(Cl)c(F)c(Cl)c1)C(=O)NC1(c2ccc(-c3cnn(C)c3)cn2)CC1 [Compound 88],0.89
17,C[C@H](NC(=O)c1cnc2n1[C@](C)(Cc1ccc(C#N)cc1)C(=O)N2c1cc(Cl)c(F)c(Cl)c1)C(=O)NC1(c2ccc(-c3ccc(CO)nc3)nc2)CC1 [Compound 90],0.28
18,C[C@H](NC(=O)c1cnc2n1[C@](C)(Cc1ccc(C#N)cc1)C(=O)N2c1cc(Cl)c(F)c(Cl)c1)C(=O)NC1(c2ccc(-c3cn[nH]c3)cn2)CC1 [Compound 93],0.7
19,C[C@@]1(Cc2ccc(C#N)cc2)C(=O)N(c2cc(Cl)c(F)c(Cl)c2)c2ncc(C(=O)NC3(C(=O)NC4(c5ccc(-c6ccc(CO)cc6)cn5)CC4)CC3)n21 [Compound 100],1.3
20,Cc1nn(C)c(C)c1-c1ccc(C2(NC(=O)C3(NC(=O)c4cnc5n4[C@](C)(Cc4ccc(C#N)cc4)C(=O)N5c4cc(Cl)c(F)c(Cl)c4)CC3)CC2)nc1 [Compound 101],1.1
21,C[C@@]1(Cc2ccc(OC(F)(F)F)cc2)C(=O)N(c2cc(Cl)c(F)c(Cl)c2)c2ncc(C(=O)NC3(C(=O)NC4(c5ccc(-c6ccc(=O)[nH]c6)cn5)CC4)CC3)n21 [Compound 108],1.1

row,SMILES,IC50 [nM]
1,C[C@@]1(Cc2ccc(OC(F)(F)F)cc2)C(=O)N(c2cc(Cl)c(F)c(Cl)c2)c2ncc(C(=O)NC3(C(=O)NC4(c5ncc(-c6ccc(CO)nc6)cn5)CC4)CC3)n21 [Compound 110],0.65
2,Cc1nn(C)cc1-c1cnc(C2(NC(=O)C3(NC(=O)c4cnc5n4[C@](C)(Cc4ccc(C#N)cc4)C(=O)N5c4cc(Cl)c(F)c(Cl)c4)CC3)CC2)nc1 [Compound 111],1.6
3,Cc1ccc(-c2cnc(C3(NC(=O)C4(NC(=O)c5cnc6n5[C@](C)(Cc5ccc(C#N)cc5)C(=O)N6c5cc(Cl)c(F)c(Cl)c5)CC4)CC3)nc2)cn1 [Compound 112],0.54
4,C[C@@]1(Cc2ccc(C#N)cc2)C(=O)N(c2cc(Cl)c(F)c(Cl)c2)c2ncc(C(=O)NC3(C(=O)NC4(c5ccc(-c6cccc(S(N)(=O)=O)c6)cn5)CC4)CC3)n21 [Compound 115],1.8
5,C[C@@H](NC(=O)C1(NC(=O)c2cnc3n2[C@](C)(Cc2ccc(OC(F)(F)F)cc2)C(=O)N3c2cc(Cl)c(F)c(Cl)c2)CC1)c1ccc(-c2ccc(CO)nc2)cn1 [Compound 116],1.3
6,C[C@@H](NC(=O)[C@@H](NC(=O)c1cnc2n1[C@](C)(Cc1ccc(C#N)cc1)C(=O)N2c1cc(Cl)c(F)c(Cl)c1)[C@@H](C)O)c1ccc(-c2ccc(CO)nc2)cn1 [Compound 119],0.85
7,Cc1nn(C)cc1-c1ccc(C(C)NC(=O)C(NC(=O)c2cnc3n2C(C)(Cc2ccc(C#N)cc2)C(=O)N3c2cc(Cl)c(F)c(Cl)c2)C(C)O)nc1 (centres unmarked) [Compound 121],1.1
8,Cc1nn(C)cc1-c1ccc(C2(NC(=O)C3(NC(=O)c4cnc5n4[C@](C)(Cc4ccc(C#N)cc4)C(=O)N5c4cc(Cl)c(F)c(Cl)c4)CC3)CC2)nc1 [Compound 123],1.4
9,CC1(Cc2ccc(C#N)cc2)C(=O)N(c2cc(Cl)cc(Cl)c2)c2ncc(C(=O)NC3(C(=O)NC4(c5ccc(-c6cnoc6)cn5)CC4)CC3)n21 (centres unmarked) [Compound 127],0.34
10,C[C@@]1(Cc2ccc(C#N)cc2)C(=O)N(c2cc(Cl)cc(Cl)c2)c2ncc(C(=O)NC3(C(=O)NC4(c5ccc(-c6cn[nH]c6)cn5)CC4)CC3)n21 [Compound 129],0.22
11,C[C@@]1(Cc2ccc(C#N)cc2)C(=O)N(c2cc(Cl)cc(Cl)c2)c2ncc(C(=O)NC3(C(=O)NC4(c5ccc(-c6ccc(C(N)=O)cc6)cn5)CC4)CC3)n21 [Compound 131],0.99
12,C[C@@]1(Cc2ccc(C#N)cc2)C(=O)N(c2cc(Cl)cc(Cl)c2)c2ncc(C(=O)NC3(C(=O)NC4(c5ccc(-c6ccc(S(N)(=O)=O)cc6)cn5)CC4)CC3)n21 [Compound 132],0.72
13,C[C@@]1(Cc2ccc(C#N)cc2)C(=O)N(c2cc(Cl)cc(Cl)c2)c2ncc(C(=O)NC3(C(=O)NC4(c5ccc(-c6ccc(NS(C)(=O)=O)cc6)cn5)CC4)CC3)n21 [Compound 133],1.5
14,C[C@@]1(Cc2ccc(C#N)cc2)C(=O)N(c2cc(Cl)cc(Cl)c2)c2ncc(C(=O)NC3(C(=O)NC4(c5ccc(-c6ccc(S(C)(=O)=O)cc6)cn5)CC4)CC3)n21 [Compound 134],0.64
15,C[C@@]1(Cc2ccc(C#N)cc2)C(=O)N(c2cc(Cl)cc(Cl)c2)c2ncc(C(=O)NC3(C(=O)NC4(c5ccc(-c6ccc(O)cc6)cn5)CC4)CC3)n21 [Compound 135],0.64
16,C[C@@]1(Cc2ccc(C#N)cc2)C(=O)N(c2cc(Cl)cc(Cl)c2)c2ncc(C(=O)NC3(C(=O)NC4(c5ccc(-c6ccc(CO)cc6)cn5)CC4)CC3)n21 [Compound 136],0.56
17,C[C@@]1(Cc2ccc(C#N)cc2)C(=O)N(c2cc(Cl)cc(Cl)c2)c2ncc(C(=O)NC3(C(=O)NC4(c5ccc(-c6cccc(S(N)(=O)=O)c6)cn5)CC4)CC3)n21 [Compound 138],0.64
18,C[C@@]1(Cc2ccc(C#N)cc2)C(=O)N(c2cc(Cl)cc(Cl)c2)c2ncc(C(=O)NC3(C(=O)NC4(c5ccc(-c6cccc(S(C)(=O)=O)c6)cn5)CC4)CC3)n21 [Compound 141],0.53
19,C[C@@]1(Cc2ccc(C#N)cc2)C(=O)N(c2cc(Cl)cc(Cl)c2)c2ncc(C(=O)NC3(C(=O)NC4(c5ccc(-c6cccc(O)c6)cn5)CC4)CC3)n21 [Compound 142],1.7
20,C[C@@]1(Cc2ccc(C#N)cc2)C(=O)N(c2cc(Cl)cc(Cl)c2)c2ncc(C(=O)NC3(C(=O)NC4(c5ccc(-c6cccc(CO)c6)cn5)CC4)CC3)n21 [Compound 143],1.9
